Patent US9127037B2, “Crystalline rostafuroxin” (ROSTAQUO S.P.A., priority 2005, dated 2015)

Legend:
Na—K pump = settings: cultured renal cells, cited from earlier work
[1] = molecular target: purified sodium, potassium ATPase enzyme (Na—K ATPase); settings: in vitro; read-out: IC50, displacement of ouabain from its binding sites on purified Na—K ATPase; cited from earlier work
[2] = test system: other receptors involved in blood pressure regulation or hormonal control; settings: in vitro; cited from earlier work
[3] = test system: rats made hypertensive by chronic infusion of ouabain; settings: ouabain 50 microg/kg/day chronic infusion, per os 0.1-1 microg/kg/day for 4 weeks; cited from earlier work
normotensive rats = settings: cited from earlier work
Solubility in water = format: physicochemical
Protocol: A mixture of 5.00 grams of rostafuroxin (amorphous or any other crystalline form) and 50 ml of absolute ethanol was stirred until clearness. This solution was than added dropwise into 250 ml of water at room temperature under vigorous stirring at room temperature. At the end of addiction, the mixture was filtered and washed with deionized water. The product was dried under vacuum at 40° C. for 16 hours. The product contained 10.6% of water, corresponding to about 2.5 moles of water per mole of rostafuroxin (rostafuroxin.2.5H2O). Yield: 55%.

C[C@@H]1O[C@@H](O[C@H]2C[C@@H](O)[C@]3(CO)[C@H]4[C@H](O)C[C@]5(C)[C@@H](C6=CC(=O)OC6)CC[C@]5(O)[C@@H]4CC[C@]3(O)C2)[C@H](O)[C@H](O)[C@H]1O [ouabain, reference compound]
concentration that stimulated the Na—K pump at Vmax (Na—K pump; incubation for 5 days): 10^−10 to 10^−8 M

C[C@]12CC[C@H](O)C[C@H]1CC[C@@H]1[C@@H]2CC[C@]2(C)[C@@](O)(c3ccoc3)CC[C@]12O [rostafuroxin, 17β-(3-furyl)-5β-androstane-3β,14β,17α-triol]
IC50 [1]: 1700 nM
interaction with other receptors involved in blood pressure regulation or hormonal control [2]: without interacting
concentrations that abolished the ouabain-dependent increase in the Na—K pump rate (Na—K pump): 10^−14 to 10^−9 M
stimulation of the Na—K pump at Vmax (same effect as ouabain) (Na—K pump): showed the same effect at micromolar concentration
increase in blood pressure caused by ouabain [3]: abolished
increase in renal Na—K ATPase activity caused by ouabain [3]: abolished
blood pressure (normotensive rats): did not affect
renal Na—K ATPase activity (normotensive rats): did not affect

CC12CCC(O)CC1CCC1C2CCC2(C)C(O)(c3ccoc3)CCC12O (stereo not drawn) [Form F, 17β-(3-furyl)-5β-androstane-3β,14β,17α-triol]
solubility in water (Solubility in water): low solubility
